Measured values: patent publication US20060229255A1, “Identification of n-alkylglycine trimers for induction of apoptosis” (priority 2003, published 2006)
Like-named read-outs stand apart in the source and are kept apart here. Blank lines part the entries; values can stand above or below the molecule they belong to.

Columns and labels:
Type in all cases: cell-based, human
T98g glioblastoma cells = test: BrdU incorporation assay (DNA synthesis); conditions: synchronized T98 g, 17 h + 2 h BrdU, read-out: IC50 BrdU incorporation (DNA synthesis inhibition)
Protocol: To confirm the G1 arrest of the cell cycle, we analyzed the DNA synthesis by an BrdU incorporation assay. Serial dilutions of the compounds N4-13-10C, N5-13-10C, N10-13-10C, N13-13-10C, etoposide or olomucine were assayed on synchronized T98 g cells as described in FIG. 7. A. Arrested cells were induced to cell cycle re-entry by re-addition of serum alone or with test compounds for 17 h, followed by 2 h in combination with 10 μM BrdU.
BrdU assay. T98g glioblastoma cells at 5000 cells/well in microtiter plates were arrested in G1-phase for 72 h by serum deprivation in MCDB 105 medium. By serum (10%) readdition, cells were treated with serial dilutions of the compounds for 17 h, and followed in combination 10 μM BrdU for […]. BrdU incorporation, i.e. DNA synthesis, was quantified with Cell Proliferation ELISA system, vs. 2 (AmershamPharmacia biotech) as described by the manufacturer.
(§1) FIG. 7. […] (A) T98 g cells were synchronized and reinitiated for 19 h with FCS alone or in combination with N10-13-10C (100 μM), N13-13-10C (100 μM), Olomucine (100 μM), etoposide (5 μM) or Taxol (30 nM). Cell cycle profile was assessed by propidium iodide DNA staining and analyzed by flow cytometry. The fraction of cells with G1, S, G2/M DNA content are shown as % of total cell population. (B. and C.) Synchronized T98 g cells were reinitiated with FCS alone or in combination with serial dilutions of N4-13-10C, N5-13-10C, N10-13-10C, N13-13-10C, Olomucine or etoposide for 19 h and labeled with BrdU during the last 2 h. BrdU incorporation was assessed by ELISA using anti-BrdU antibodies. An arbitrary value of 100% was assigned to the densiometric rate of DNA synthesis by untreated cultures and all other values are depicted relative to that reference. The values are means of three (n=3) replicates.

T98 g cells = test: Cell cycle DNA analysis in synchronized cells; conditions: for Cells retained in G1: 19 h after serum re-addition, 100 μM
Protocol: Experimentally this finding was substantiated analysing the compounds in a cellular model with synchronized cells. T98 g cells were arrested in G1 phase (82%) by serum starvation in MCDB 105 medium after 72 h. Upon 10% serum re-addition, cells were allowed to re-enter into the cell cycle. More than 50% of the cells were in the S-phase, and only 20% remained in G1 after 19 h of FCS introduction. Addition of N10-13-10C or N13-13-10C to the cultures at the moment of serum addition restrained S-phase entry (FIG. 7. A). Around 40% of the cells were retained in G1. In conclusions both N10-13-10C and N13-13-10C were able to induce a G1 arrest either in asynchronous or in synchronized cell cultures, as determined by cell cycle DNA analysis. In comparison, Olomucine which is a cdk2 inhibitor, retained 80% of the cells in G1. The topoisomerase II inhibitor etoposide treated cells were arrested in S phase of the cell cycle (85% of the cell population).
DNA analysis. Floating and adherent cells treated with the compounds were collected by trypsinization and washed twice with PBS. The cells were permeabilized overnight at −20° C. with ice-cold ethanol 70%. The cells were washed in PBS, adjusted at 0.5×10^6 cells/ml and incubated with 20 μg/ml Propidium Iodide and 2 μl/ml RNase DNase-free for 30 min at 30° C. Cells were maintained overnight at 4° C. and then analysed by flow cytometry. Flow cytometric experiments were carried out using an Epics XL flow cytometer (Coulter Corporation, Hialeah, Fla.). The instrumet was set up with the standard configuration: excitation of the sample was done using an standard 488 nm air-cooled argon-ion laser at 15 mW power. Forward scatter (FSC), side scatter (SSC) and red (620 nm) fluorescence for PI were adquired. Optical alignement was based on optimized signal from […] fluorescent beads (Immunocheck, Epics Division). Time was used as a control of the stability of the instrument. Red fluorescence was projected on a 1024 monoparametrical histogram. Aggregates were excluded gating single cells by their area vs. peak fluorescence signal. DNA analysis (Ploidy analysis) on single fluorescence histograms was done using Multicycle software (Phoenix Flow Systems, San Diego, Calif.).
as §1

Bcl-xL = test: Western blot of Bcl-xL phosphorylation; conditions: HT29 cells, 3, 6 and 24 h
Protocol: Western blotting. Floating and adherent cells were harvested and pellets were resuspended in RIPA buffer (50 mM Tris/HCl 7.4, 250 mM NaCl, 0,5% Igepal CA630, 5 mM EDTA, 1 mM PMSF, 10 μg/ml leupeptin, 50 mM NaF, 0.1 mM Na3VO4) or Deoxycholate buffer (10 mM phosphate buffer 7.4, […] NaCl, 0.5% Deoxycholate, 1% Igepal, 0.1% SDS, 1 mM PMSF). Protein concentration was determined with BCA Protein Assay Kit (Pierce) for RIPA extracts or Bradford assay (BioRad) for Deoxycholate extracts. Total protein (20-30 μg/lane) were separated by SDS-PAGE, transferred to PVDF membranes (Gellman), and probed with antibodies against Bcl-xL (Transduction); Bax (Santa Cruz); JNK (Santa Cruz); phospho-JNK (Cell Signaling); pRb (Pharmingen); pRb-phospho Ser780 (Cell Signalling); p130 (Santa Cruz); p107 (Santa Cruz); Cdk2 (Santa Cruz); p27^Kip1 (Santa Cruz); p21^Cip1 (Santa Cruz); actin (Sigma); or tubulin (ICN) and developed with ECL system (AmershamPharmacia biotech)
FIG. 6. (A) JNK is activated after N13-13-10C treatment. HT29 cells were treated for 1, 3, 6 and 24 h with N13-13-10C (35 μM), harvested and immunoblotted to assess activation of SAP/JNK MAP kinase. Western blot was first probed with the JNK-phosphor specific antibody, was stripped and reprobed with the pan-JNK antibody and actin to normalize total protein level. […]

IC50 (T98g glioblastoma cells): 50 µM
Compound: Cn1cnc2c(NCc3ccccc3)nc(NCCO)nc21 [Olomucine]
Cells retained in G1 (T98 g cells): 80% | Cells retained in G1 (T98 g cells; listed as olomucine): 82%

Compound: CC(=O)O[C@H]1C(=O)[C@@]2(C)[C@H]([C@H](OC(=O)c3ccccc3)[C@]3(O)C[C@H](OC(=O)[C@H](O)[C@@H](NC(=O)c4ccccc4)c4ccccc4)C(C)=C1C3(C)C)[C@]1(OC(C)=O)CO[C@@H]1C[C@@H]2O [Taxol, reference compound]
Bcl-xL phosphorylation (slower migrating band) (Bcl-xL): phosphorylated bcl-xL | Effect on cell cycle profile (T98 g cells; 19 h of treatment, Taxol 30 nM): does not effect cell cycle profile

IC50 (T98g glioblastoma cells; Homo sapiens, T98G): 200 µM
Compound: COc1cc([C@@H]2c3cc4c(cc3[C@@H](O[C@@H]3O[C@@H]5CO[C@@H](C)O[C@H]5[C@H](O)[C@H]3O)[C@H]3COC(=O)[C@H]23)OCO4)cc(OC)c1O [etoposide, reference compound]
Cells arrested in S phase (T98 g cells; 19 h, etoposide 5 μM): 85%
